# Assay results reported in patent publication US12264128B1, “Acid as an antioxidant compound” (KING FAISAL UNIVERSITY, priority 2023, dated 2025).
# Assay: DPPH radical scavenging antioxidant test
# Settings: 517 nm; for Inhibition (radical scavenging inhibition): 0.2 mL DPPH (0.75 mM), compound 3 μM in ethanol, 30 min incubation in the dark
# Method: The antioxidant properties of the 8-((3,4-dihydroxyphenyl)diazenyl)naphthalene-1,3-disulfonic acid were studied by adding 0.2 mL DPPH (0.75 mM)) to compound 8-((3,4-dihydroxyphenyl)diazenyl)naphthalene-1,3-disulfonic acid (III) (3 μM) in ethanol. After 30 min of incubation in the dark, the absorbance was read against a blank at 517 nm. Ascorbic acid (vitamin C) was used as standard antioxidants (positive control). A blank sample was prepared by 0.2 ml of DPPH in 3 ml ethanol. A negative control sample was run using ethanol instead of the sample. The radical scavenging inhibition was calculated using the following equation: […]
# The antioxidant activity for the synthesized compound is listed in Table 1, using Vitamin C as a reference.
smiles,measurement,setting,value
"O=C1O[C@H]([C@@H](O)CO)C(O)=C1O [vit c, Ascorbic acid, reference compound]",Inhibition (radical scavenging inhibition),,74%
"O=S(=O)(O)c1cc(S(=O)(=O)O)c2c(/N=N/c3ccc(O)c(O)c3)cccc2c1 [Product III, 8-((3,4-dihydroxyphenyl)diazenyl)naphthalene-1,3-disulfonic acid]",Inhibition (radical scavenging inhibition),,54%
same,antioxidant potential compared to vitamin C (in words),"DPPH in vitro test, vitamin C as positive control",high potential as an antioxidant compared to vitamin C
